Measurements published in patent publication US10495630B2, “Methods for the determination of compounds or compositions for the treatment of lipofuscin related diseases and compounds or compositions” (KATAIRO GMBH, priority 2014, dated 2019).
Read-outs that look alike come from different tables or passages of the source.

Tested on: Abca4 (−/−) mice
Experiment: A2E concentration in eyes of Abca4 (−/−) mice after intravitreal injection, HPLCMSMS
Assay type: in vivo
Settings: for response vs control in vivo at 40000 µg/mL / response vs control in vivo at 20000 µg/mL: Mus musculus, 168 h, read-out: % of A2E relative to age matched untreated
Text: […] […] The left eye was not treated and maintained as a control. Untreated eyes of age-matched mice lacking the Abca4 transporter were an additional control.
The concentration in each treated eye was then expressed as a percentage of the average concentration in all untreated eyes in the mice of the same age.
The left eye was not treated and maintained as a control. Untreated eyes of age-matched mice lacking the Abca4 transporter were an additional control.
The left eye was not treated and maintained as a control. Untreated eyes of age-matched mice lacking the Abca4 transporter were an additional control. […] Tryptophan is capable of absorbing and re-radiating light energy, as is riboflavin.
Water solutions were diluted 1:3 with acetonitrile and then sealed in vials for injection. 6 μL of the water acetonitrile solutions were injected onto a 2×50 mm Phenyl derived HPLC column (3 μm) and eluted with a gradient from 20% acetonitrile to 100% acetonitrile over 4 minutes at a flow rate of 500 μL/minute.

[1] = chelators or metal interactors, intravitreal 2 μl of 40 mg/ml or concentration as indicated, one week after injection
[2] = redox active small molecules and chelator, intravitreal 2 μl of 20 mg/ml, 16 hours after injection
[3] = tetracycline antibiotics, intravitreal 2 μl of 20 mg/ml, one week after injection
[4] = dyes and porphyrins, intravitreal 2 μl of 20 mg/ml, one week after injection
[5] = amino acids or metabolites, intravitreal 2 μl of 40 mg/ml, one week after injection
[6] = quinolones, intravitreal 2 μl of 20 mg/ml, one week after injection

c1cnc2c(c1)ccc1cccnc12 [1,10-phenanthroline]
response vs control in vivo at 40000 µg/mL [1]: 91% | Concentration A2E (μM) in the treated eye [1]: 20 µM

C[C@@H]1CC[C@H]2[C@@H](C)C(=O)O[C@@H]3O[C@@]4(C)CC[C@@H]1[C@]32OO4 [Artemesinin]
% of A2E relative to age matched untreated [2]: 75% | Concentration A2E (μM) in the treated eye [2]: 38 µM

O=C(N[C@H](CO)[C@H](O)c1ccc([N+](=O)[O-])cc1)C(Cl)Cl [Chloramphenicol]
response vs control in vivo at 20000 µg/mL [3]: 70% | Concentration A2E (μM) in the treated eye [3]: 24 µM

CN(C)c1ccc(C(=C2C=CC(=[N+](C)C)C=C2)c2ccc(N(C)C)cc2)cc1 [Crystal violet]
response vs control in vivo at 20000 µg/mL [4]: 71% | Concentration A2E (μM) in the treated eye [4]: 23 µM

N[C@@H](CS)C(=O)O [Cysteine]
response vs control in vivo at 40000 µg/mL [5]: 59% | Concentration A2E (μM) in the treated eye [5]: 12 µM | % of A2E relative to age matched untreated [1]: 59% | Concentration A2E (μM) in the treated eye [1]: 12 µM

C[C@H]1c2cccc(O)c2C(=O)C2=C(O)[C@]3(O)C(=O)C(C(N)=O)=C(O)[C@@H](N(C)C)[C@@H]3[C@@H](O)[C@@H]21 [Doxycycline]
response vs control in vivo at 20000 µg/mL [3]: 81% | Concentration A2E (μM) in the treated eye [3]: 28 µM

Cc1cc2nc3c(=O)[nH]c(=O)nc-3n(C[C@H](O)[C@H](O)[C@H](O)COP(=O)(O)OP(=O)(O)OC[C@H]3O[C@@H](n4cnc5c(N)ncnc54)[C@H](O)[C@@H]3O)c2cc1C [FAD]
% of A2E relative to age matched untreated [4]: 99% | Concentration A2E (μM) in the treated eye [4]: 23 µM

CN1CCN(c2c(F)cc3c(=O)c(C(=O)O)cn(CCF)c3c2F)CC1 [Fleroxacin]
response vs control in vivo at 20000 µg/mL [6]: 74% | Concentration A2E (μM) in the treated eye [6]: 24 µM

O=C1OC2(c3ccc(O)cc3Oc3cc(O)ccc32)c2ccccc21 [Fluoroscein]
response vs control in vivo at 20000 µg/mL [4]: 85% | Concentration A2E (μM) in the treated eye [4]: 20 µM

N[C@@H](CCC(=O)N[C@@H](CS)C(=O)NCC(=O)O)C(=O)O [Glutathione]
response vs control in vivo at 40000 µg/mL [5]: 89% | Concentration A2E (μM) in the treated eye [5]: 35 µM

O=C1/C(=C2\Nc3ccc(S(=O)(=O)[O-])cc3C2=O)Nc2ccc(S(=O)(=O)[O-])cc21.[Na+].[Na+] [Indigocarmine]
% of A2E relative to age matched untreated [4]: 98% | Concentration A2E (μM) in the treated eye [4]: 22 µM

CC1(C)C(/C=C/C=C/C=C/C=C2\N(CCCCS(=O)(=O)O)c3ccc4ccccc4c3C2(C)C)=[N+](CCCCS(=O)(=O)[O-])c2ccc3ccccc3c21 [Indocyanine green]
response vs control in vivo at 20000 µg/mL [4]: 66% | Concentration A2E (μM) in the treated eye [4]: 20 µM

CN(C)c1ccc(O)c2c1C[C@H]1C[C@H]3[C@H](N(C)C)C(O)=C(C(N)=O)C(=O)[C@@]3(O)C(O)=C1C2=O [Minocycline]
response vs control in vivo at 20000 µg/mL [3]: 100% | Concentration A2E (μM) in the treated eye [3]: 33 µM

CCn1cc(C(=O)O)c(=O)c2cc(F)c(N3CCNCC3)cc21 [Norfloxacin]
response vs control in vivo at 20000 µg/mL [6]: 106% | Concentration A2E (μM) in the treated eye [6]: 36 µM

c1ccc2c(c1)Nc1ccccc1S2 [Phenothiazine]
response vs control in vivo at 20000 µg/mL: 85% | Concentration A2E (μM) in the treated eye [4]: 27 µM

c1ccc2c(c1)-c1nc-2nc2[nH]c(nc3nc(nc4[nH]c(n1)c1ccccc41)-c1ccccc1-3)c1ccccc21 [Phthalocyanine]
% of A2E relative to age matched untreated [4]: 142% | Concentration A2E (μM) in the treated eye [4]: 31 µM

C=C[C@H]1C[N@@]2CC[C@H]1C[C@H]2[C@H](O)c1ccnc2ccc(OC)cc12 [Quinine]
response vs control in vivo at 20000 µg/mL [4]: 81% | Concentration A2E (μM) in the treated eye [4]: 17 µM
